Assay results: patent US10961215B2, “N-aryl and N-heteroaryl piperidine derivatives as liver X receptor beta agonists, compositions, and their use” (Merck Sharp & Dohme Corp., priority 2016, dated 2021)

Experiments:
[1] = target: T1, GST tagged LXRbeta LBD (ligand binding domain) (Homo sapiens, UniProt P55055); assay: LanthaScreen TR-FRET Liver X Receptor Coactivator Assay, LXR beta-LBD (co-activator recruitment; IP and % Emax relative to T0901317); type: biochemical
T1 construct: purchased Invitrogen pv4658.pps
T1 sequence (P55055 222-460 limits assumed): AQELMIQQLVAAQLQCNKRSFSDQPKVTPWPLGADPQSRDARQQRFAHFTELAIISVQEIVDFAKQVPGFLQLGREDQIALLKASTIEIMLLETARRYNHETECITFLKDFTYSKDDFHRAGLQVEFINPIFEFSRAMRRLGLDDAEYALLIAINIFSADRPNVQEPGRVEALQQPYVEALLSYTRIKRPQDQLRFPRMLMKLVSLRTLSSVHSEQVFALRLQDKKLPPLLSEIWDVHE
Summary of the method: (§1)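 TR-FRET coactivator recruitment; LBD + cpd, then fluorescein coactivator peptide/Tb anti-GST Ab mix; RT incubation; IP and Emax vs T0901317.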

[2] = target: T2, GST tagged LXRalpha LBD (ligand binding domain) (Homo sapiens, UniProt Q13133); assay: LanthaScreen TR-FRET Liver X Receptor Coactivator Assay, LXR alpha-LBD (co-activator recruitment; IP and % Emax relative to T0901317); type: biochemical
T2 construct: purchased Invitrogen pv4655
T2 sequence (Q13133 209-447 limits assumed): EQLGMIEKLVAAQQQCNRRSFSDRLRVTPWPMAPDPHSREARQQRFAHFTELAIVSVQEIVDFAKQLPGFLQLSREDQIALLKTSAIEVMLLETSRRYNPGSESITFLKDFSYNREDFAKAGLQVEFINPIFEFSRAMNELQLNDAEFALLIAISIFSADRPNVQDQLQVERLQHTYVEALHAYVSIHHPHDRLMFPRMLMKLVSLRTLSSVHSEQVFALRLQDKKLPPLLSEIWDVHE
Summary of the method: as §1

EC50 ([1]; Inflection Point of co-activator recruitment, LXR beta-LBD, TR-FRET): 66 nM | Emax ([1]; efficacy at max dose in relation to reference T0901317, LXR beta-LBD, read-out: LXR beta actiivty at max dose (%)): 57% | LXR alpha IP (nM) ([2]; Inflection Point of co-activator recruitment, LXR alpha-LBD, TR-FRET): No IP | Emax ([2]; efficacy at max dose in relation to reference T0901317, LXR alpha-LBD, read-out: LXR alpha actiivty at max dose (%)): 15%
Structure (SMILES): CN(C)C(=O)c1ccc(N2CCC(C[C@@H]3C[C@H]3CN(C)C(=O)[C@](O)(c3ccccc3)C(F)(F)F)CC2)nc1Cl [Example 18-4, 2-chloro-N,N-dimethyl-6-(4-(((1R,2R)-2-(((R)-3,3,3-trifluoro-2-hydroxy-N-methyl-2-phenylpropanamido)methyl)cyclopropyl)methyl)piperidin-1-yl)nicotinamide]
